Series [1] concerns shock avoidance acquisition. Kind of series: blockade of shock avoidance acquisition in the rat (procedure for assessing antipsychotic activity). To be noted: i.p. The format is in vivo. How it is done:
(§1) To predict the potential ability of a drug to cause EPS, the ratio of its ED50 (i.p.) for antagonism of amphetamine-induced rotation to its ED50 (i.p.) for blockage of shock avoidance acquisition in the rat, a procedure for assessing antipsychotic activity, (R/A ratio) is calculated.

In series [2] the test system is striatal dopamine receptors. The following applies: rat, in vivo, ip.
Description: There is evidence that antipsychotic drugs cause EPS by interfering with neurotransmission in a nigrostriatal dopaminergic pathway. It is throught that they block dopamine receptors in the neostriatum. Therefore, the ability of a drug to block striatal dopamine receptors is a measure of its EPS liability.
(§2) To assess the potency of drugs in blocking striatal dopamine receptors a procedure was used which was developed by Ungerstedt [Ungerstedt and Arbuthnott, Brain Res. 24 485 (1970); Ungerstedt, Acta physiol. scand., Suppl. 367, 49 (1971)] using rats with unilateral lesions of the substantia nigra induced by injection of 6-hydroxydopamine. This treatment causes degeneration of the nigrostriatal dopaminergic pathway accompanied by a marked decrease in the dopamine content of the neostriatum on the side of the lesion. Animals with this lesion develop postural and motor asymmetries which are altered by drugs which effect dopaminergic activity. Amphetamine, which releases dopamine and norepinephrine from catecholaminergic neurons, causes these rats to rotate unidirectionally toward the side of the lesion. Since there is a much larger amount of dopamine to be released by amphetamine from the intact nigrostriatal neurons on the non-lesioned side than from those remaining on the lesioned side, the rotational behavior is apparently due to a preponderance of activation of striatal dopamine receptors on the intact side. The ability of a drug to antagonize the rotational behavior is therefore a measure of its ability to block striatal dopamine receptors and is indicative of its potential to produce EPS.
as §1

The subject of series [3] is striatal dopamine receptors. Kind of series: antagonism of amphetamine-induced rotation in rats with unilateral 6-hydroxydopamine lesions of the substantia nigra. The format is in vivo, rat. The following applies: for ED50 for antagonism of amphetamine-induced rotation: rat; for ED50: Rattus norvegicus, ip, read-out: Antagonism of Amphetamine-induced Rotation Rats ED50.
Description: as §2, §1

For series [4] the following is noted: clinically established antipsychotics; cited from earlier work.

Molecules are shown by their SMILES. Where two headings read alike, the source gives them in different places.

Turning to `Clc1ccc2c(c1)C(=C1CCC3CCCCN3C1)c1ccccc1S2` (stereo not drawn) [3-(2-chlorothioxanthen-9-ylidene)quinolizidine, isomer havin], in series [1], the “ED50 for blockade of shock avoidance acquisition” value was 1.7 mg/kg. In addition, the R/A ratio in series [2] came to 4.8. For the same molecule, in series [3] (i.p.), the “ED50 for antagonism of amphetamine-induced rotation” value came to 8.2 mg/kg.
For `Clc1ccc2c(c1)C(=C1CCC3CCCCN3C1)c1ccccc1S2` (stereo not drawn) [3-(2-chlorothioxanthen-9-ylidene)quinolizidine, other isomer], in that order: 0.7 mg/kg, 3.3 and 2.3 mg/kg.
`CN(C)CCCN1c2ccccc2Sc2ccc(Cl)cc21` [Chlorpromazine]: the ED50 (commonly the dose at which the effect has come halfway, by size or by number of responders) in series [3] came to 2 mg/kg.
As to `CN1CCN(C2=Nc3cc(Cl)ccc3Nc3ccccc32)CC1` [Clozapine, clozapine], the “propensity to cause EPS relative to chlorpromazine” value in series [4] is “known to produce EPS to a lesser extent than chlorpromazine”. For the same molecule, the ED50 in series [3] (rats, i.p., Table I, R) turned out to be 25.4 mg/kg.
For the molecule `O=C(CCCN1CCC(O)(c2ccc(Cl)cc2)CC1)c1ccc(F)cc1` [Haloperidol, haloperidol], in series [2], the R/A ratio is reported as 0.3-0.5. Besides, the “propensity to cause EPS relative to chlorpromazine” value in series [4] is on record as “considerably greater propensity to cause EPS than chlorpromazine”. In addition, the 50% effective dose (ED50) in series [3] (rats, i.p., Table I, R) came to 0.05 mg/kg.
For `O=c1[nH]c2ccccc2n1C1CCN(CCCC(c2ccc(F)cc2)c2ccc(F)cc2)CC1` [Pimozide, pimozide], in series [4], the “propensity to cause EPS relative to chlorpromazine” value is reported as “considerably greater propensity to cause EPS than chlorpromazine”. For the same molecule, the ED50 in series [3] turned out to be 0.08 mg/kg.
Consider `CSc1ccc2c(c1)N(CCC1CCCCN1C)c1ccccc1S2` (centres unmarked) [Thioridazine, thioridazine], for which the R/A ratio in series [2] stood at 2.7. Also, the “propensity to cause EPS relative to chlorpromazine” value in series [4] was “known to produce EPS to a lesser extent than chlorpromazine”. The ED50 in series [3] (rats, i.p., Table I, R) is 13.7 mg/kg.
As to `CN1CCN(CCCN2c3ccccc3Sc3ccc(C(F)(F)F)cc32)CC1` [Trifluoperazine, trifluoperazine], in series [2], the R/A ratio is 0.3-0.5. Moreover, in series [4], the “propensity to cause EPS relative to chlorpromazine” value was “considerably greater propensity to cause EPS than chlorpromazine”. For the same molecule, in series [3] (rats, i.p., Table I, R), the ED50 was determined as 0.12 mg/kg.
